In PubChem BioAssay (NCI):
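Protocol summary: plate cells (96-well), add compound at 5 concentrations, incubate 48 h, interpolate endpoints linearly. The concentration for 50% growth inhibition is given as GI50. The concentration for full growth arrest is given as TGI.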

Experiments:
Assay in all cases: NCI anticancer screen, dose series, 48 h
UACC-257 melanoma = test system: UACC-257 melanoma
A549 NSCLC = test system: A549 NSCLC
A498 renal = test system: A498 renal
EKVX NSCLC = test system: EKVX NSCLC
UO-31 renal = test system: UO-31 renal
TK-10 renal = test system: TK-10 renal
SN12C renal = test system: SN12C renal
NCI-H522 lung = test system: NCI-H522 lung
SW-620 colon = test system: SW-620 colon
M14 melanoma = test system: M14 melanoma
CCRF-CEM leukemia = test system: CCRF-CEM leukemia
OVCAR-5 ovarian = test system: OVCAR-5 ovarian
OVCAR-3 ovarian = test system: OVCAR-3 ovarian
RPMI-8226 leukemia = test system: RPMI-8226 leukemia
SK-MEL-2 melanoma = test system: SK-MEL-2 melanoma
CAKI-1 renal = test system: CAKI-1 renal
OVCAR-4 ovarian = test system: OVCAR-4 ovarian
HOP-92 NSCLC = test system: HOP-92 NSCLC
UACC-62 melanoma = test system: UACC-62 melanoma
IGROV1 ovarian = test system: IGROV1 ovarian
BT-549 breast = test system: BT-549 breast
SK-MEL-5 melanoma = test system: SK-MEL-5 melanoma
HS 578T breast = test system: HS 578T breast
HL-60(TB) leukemia = test system: HL-60(TB) leukemia
SNB-75 CNS = test system: SNB-75 CNS
SF-268 CNS = test system: SF-268 CNS
T-47D breast = test system: T-47D breast
SNB-19 CNS = test system: SNB-19 CNS
MALME-3M melanoma = test system: MALME-3M melanoma
SR leukemia = test system: SR leukemia
PC-3 prostate = test system: PC-3 prostate
SF-295 CNS = test system: SF-295 CNS
MCF7 breast = test system: MCF7 breast
MOLT-4 leukemia = test system: MOLT-4 leukemia
HCC-2998 colon = test system: HCC-2998 colon
HCT-116 colon = test system: HCT-116 colon
OVCAR-8 ovarian = test system: OVCAR-8 ovarian
MDA-MB-435 = test system: MDA-MB-435
NCI-H460 lung = test system: NCI-H460 lung
NCI-H226 lung = test system: NCI-H226 lung
NCI-H23 lung = test system: NCI-H23 lung
ACHN renal = test system: ACHN renal
HT29 colon = test system: HT29 colon
786-0 renal = test system: 786-0 renal
NCI/ADR-RES ovarian = test system: NCI/ADR-RES ovarian
SF-539 CNS = test system: SF-539 CNS
K-562 leukemia = test system: K-562 leukemia
HOP-62 NSCLC = test system: HOP-62 NSCLC
SK-MEL-28 melanoma = test system: SK-MEL-28 melanoma
HCT-15 colon = test system: HCT-15 colon
LOX IMVI melanoma = test system: LOX IMVI melanoma
COLO 205 colon = test system: COLO 205 colon
MDA-MB-231 breast = test system: MDA-MB-231 breast
SK-OV-3 ovarian = test system: SK-OV-3 ovarian
KM12 colon = test system: KM12 colon
U251 CNS = test system: U251 CNS
MDA-MB-468 breast = test system: MDA-MB-468 breast
DU-145 prostate = test system: DU-145 prostate

COc1cc(/C=C/C(=O)c2ccccc2)ccc1Oc1nc(Nc2ccc(F)cc2)nc(N(C)C)n1
GI50 (UACC-257 melanoma): 6.44 µM | TGI (UACC-257 melanoma): 77.2 µM | GI50 (A549 NSCLC): 11.7 µM | TGI (A549 NSCLC): > 100 µM | GI50 (A498 renal): 27 µM | TGI (A498 renal): > 100 µM | GI50 (EKVX NSCLC): 4.73 µM | TGI (EKVX NSCLC): > 100 µM | GI50 (UO-31 renal): 4.4 µM | TGI (UO-31 renal): > 100 µM | GI50 (TK-10 renal): 18 µM | TGI (TK-10 renal): > 100 µM | GI50 (SN12C renal): 7.32 µM | TGI (SN12C renal): 22.1 µM | GI50 (NCI-H522 lung): 5.15 µM | TGI (NCI-H522 lung): 59.2 µM | GI50 (SW-620 colon): 1.81 µM | TGI (SW-620 colon): 3.97 µM | GI50 (M14 melanoma): 13 µM | TGI (M14 melanoma): 37.8 µM | GI50 (CCRF-CEM leukemia): 3.38 µM | TGI (CCRF-CEM leukemia): > 100 µM | GI50 (OVCAR-5 ovarian): 13.9 µM | TGI (OVCAR-5 ovarian): 48.3 µM | GI50 (OVCAR-3 ovarian): 11.8 µM | TGI (OVCAR-3 ovarian): > 100 µM | GI50 (RPMI-8226 leukemia): 2.83 µM | TGI (RPMI-8226 leukemia): 33.9 µM | GI50 (SK-MEL-2 melanoma): 4.68 µM | TGI (SK-MEL-2 melanoma): 20.7 µM | GI50 (CAKI-1 renal): 5.72 µM | TGI (CAKI-1 renal): > 100 µM | GI50 (OVCAR-4 ovarian): 5.85 µM | TGI (OVCAR-4 ovarian): 41.7 µM | GI50 (HOP-92 NSCLC): 2.08 µM | TGI (HOP-92 NSCLC): 12.9 µM | GI50 (UACC-62 melanoma): 4.99 µM | TGI (UACC-62 melanoma): 24.2 µM | GI50 (IGROV1 ovarian): 18.7 µM | TGI (IGROV1 ovarian): > 100 µM | GI50 (BT-549 breast): 12 µM | TGI (BT-549 breast): 28.6 µM | GI50 (SK-MEL-5 melanoma): 6.21 µM | TGI (SK-MEL-5 melanoma): 34.2 µM | GI50 (HS 578T breast): 5.44 µM | TGI (HS 578T breast): 56.4 µM | GI50 (HL-60(TB) leukemia): 8.38 µM | TGI (HL-60(TB) leukemia): 67.1 µM | GI50 (SNB-75 CNS): 4.7 µM | TGI (SNB-75 CNS): 95.9 µM | GI50 (SF-268 CNS): 12.2 µM | TGI (SF-268 CNS): > 100 µM | GI50 (T-47D breast): 3.36 µM | TGI (T-47D breast): > 100 µM | GI50 (SNB-19 CNS): 10.2 µM | TGI (SNB-19 CNS): 27.6 µM | GI50 (MALME-3M melanoma): 15.9 µM | TGI (MALME-3M melanoma): 39.6 µM | GI50 (SR leukemia): 2.9 µM | TGI (SR leukemia): > 100 µM | GI50 (PC-3 prostate): 10 µM | TGI (PC-3 prostate): > 100 µM | GI50 (SF-295 CNS): 6.89 µM | TGI (SF-295 CNS): 48.5 µM | GI50 (MCF7 breast): 3.08 µM | TGI (MCF7 breast): 15 µM | GI50 (MOLT-4 leukemia): 2.56 µM | TGI (MOLT-4 leukemia): > 100 µM | GI50 (HCC-2998 colon): 12.9 µM | TGI (HCC-2998 colon): 76.5 µM | GI50 (HCT-116 colon): 3.21 µM | TGI (HCT-116 colon): 12.9 µM | GI50 (OVCAR-8 ovarian): 5.9 µM | TGI (OVCAR-8 ovarian): 26.5 µM | GI50 (MDA-MB-435): 7.39 µM | TGI (MDA-MB-435): 28.4 µM | GI50 (NCI-H460 lung): 9.14 µM | TGI (NCI-H460 lung): 30 µM | GI50 (NCI-H226 lung): 4.94 µM | TGI (NCI-H226 lung): 21.5 µM | GI50 (NCI-H23 lung): 12.6 µM | TGI (NCI-H23 lung): 51.4 µM | GI50 (ACHN renal): 8.29 µM | TGI (ACHN renal): 37.4 µM | GI50 (HT29 colon): 4.36 µM | TGI (HT29 colon): 19 µM | GI50 (786-0 renal): 20.5 µM | TGI (786-0 renal): 87 µM | GI50 (NCI/ADR-RES ovarian): 7.04 µM | TGI (NCI/ADR-RES ovarian): 22.6 µM | GI50 (SF-539 CNS): 13.8 µM | TGI (SF-539 CNS): 26.7 µM | GI50 (K-562 leukemia): 3.57 µM | TGI (K-562 leukemia): > 100 µM | GI50 (HOP-62 NSCLC): 26.6 µM | TGI (HOP-62 NSCLC): > 100 µM | GI50 (SK-MEL-28 melanoma): 12.2 µM | TGI (SK-MEL-28 melanoma): 32.1 µM | GI50 (HCT-15 colon): 3.31 µM | TGI (HCT-15 colon): 12.9 µM | GI50 (LOX IMVI melanoma): 1.6 µM | TGI (LOX IMVI melanoma): 3.15 µM | GI50 (COLO 205 colon): 15.1 µM | TGI (COLO 205 colon): > 100 µM | GI50 (MDA-MB-231 breast): 6.92 µM | TGI (MDA-MB-231 breast): 21.9 µM | GI50 (SK-OV-3 ovarian): 48.6 µM | TGI (SK-OV-3 ovarian): > 100 µM | GI50 (KM12 colon): 14.9 µM | TGI (KM12 colon): > 100 µM | GI50 (U251 CNS): 2.84 µM | TGI (U251 CNS): 13.4 µM | GI50 (MDA-MB-468 breast): 3.21 µM | TGI (MDA-MB-468 breast): 19.9 µM | GI50 (DU-145 prostate): 27.3 µM | TGI (DU-145 prostate): > 100 µM
